Consider 39 molecules from US20230219962A1, “PYRAZOLO[4,3-d]PYRIMIDINE DERIVATIVES AND METHODS OF USE THEREOF FOR THE TREATMENT OF CELLULAR PROLIFERATIVE DISORDERS” (Merck Sharp & Dohme LLC, priority 2020, published 2023).

pEC50: −log10 of the molar value. Bounds are passed on as bounds.

The target in one test is T1, hTLR8 (Homo sapiens, UniProt Q9NR97).
T1 construct: host or cells: HEK-Blue hTLR8 cells (HEK293-derived, own knowledge)
T1 sequence (Q9NR97 27-1041): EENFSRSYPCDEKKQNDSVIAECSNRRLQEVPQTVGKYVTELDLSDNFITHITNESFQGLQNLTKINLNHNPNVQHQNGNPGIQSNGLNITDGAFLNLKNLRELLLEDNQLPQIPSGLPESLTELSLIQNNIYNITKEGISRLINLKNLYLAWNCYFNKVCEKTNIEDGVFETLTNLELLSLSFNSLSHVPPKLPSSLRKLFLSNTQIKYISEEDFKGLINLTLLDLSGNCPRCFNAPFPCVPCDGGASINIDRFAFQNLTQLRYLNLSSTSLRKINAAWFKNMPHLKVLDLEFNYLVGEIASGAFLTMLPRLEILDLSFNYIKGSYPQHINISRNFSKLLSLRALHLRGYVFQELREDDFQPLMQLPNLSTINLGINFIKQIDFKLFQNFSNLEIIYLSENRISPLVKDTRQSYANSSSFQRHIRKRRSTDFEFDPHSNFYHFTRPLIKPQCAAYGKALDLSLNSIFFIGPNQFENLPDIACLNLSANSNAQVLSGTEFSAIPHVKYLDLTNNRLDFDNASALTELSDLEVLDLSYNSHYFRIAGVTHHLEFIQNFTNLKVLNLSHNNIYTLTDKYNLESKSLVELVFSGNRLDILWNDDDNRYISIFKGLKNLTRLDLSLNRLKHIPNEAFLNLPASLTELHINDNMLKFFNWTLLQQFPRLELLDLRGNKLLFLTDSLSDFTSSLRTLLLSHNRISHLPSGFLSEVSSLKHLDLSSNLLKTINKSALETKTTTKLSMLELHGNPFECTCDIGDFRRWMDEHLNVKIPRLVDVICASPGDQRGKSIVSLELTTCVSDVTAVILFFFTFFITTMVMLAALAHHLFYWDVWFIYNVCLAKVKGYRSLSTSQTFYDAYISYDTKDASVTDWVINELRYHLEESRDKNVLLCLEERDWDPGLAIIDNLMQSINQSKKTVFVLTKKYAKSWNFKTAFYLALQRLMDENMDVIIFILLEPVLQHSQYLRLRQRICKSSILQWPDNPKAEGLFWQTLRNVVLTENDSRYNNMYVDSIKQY
The test can be described thus: Human TLR8 Reporter Assay. In kind it is cell-based. The conditions noted are these: HEK-Blue hTLR8 cells, 16 hours, normalized to tl8-506 (1 μM) and DMSO. The method in brief:
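HEK-Blue hTLR8 cells (20,000/well) incubated 16 h at 37 °C with 10-point 3-fold compound dilutions in HEK-Blue Detection medium; reporter read as absorbance at 620 nm. Effects normalized between DMSO and tl8-506 (1 μM); EC50 from 4-parameter fit.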

In the next test the target is T2, hTLR7 (Homo sapiens, UniProt Q9NYK1).
T2 construct: host or cells: HEK-Blue hTLR7 cells (HEK293-derived, own knowledge)
T2 sequence (Q9NYK1 27-1049): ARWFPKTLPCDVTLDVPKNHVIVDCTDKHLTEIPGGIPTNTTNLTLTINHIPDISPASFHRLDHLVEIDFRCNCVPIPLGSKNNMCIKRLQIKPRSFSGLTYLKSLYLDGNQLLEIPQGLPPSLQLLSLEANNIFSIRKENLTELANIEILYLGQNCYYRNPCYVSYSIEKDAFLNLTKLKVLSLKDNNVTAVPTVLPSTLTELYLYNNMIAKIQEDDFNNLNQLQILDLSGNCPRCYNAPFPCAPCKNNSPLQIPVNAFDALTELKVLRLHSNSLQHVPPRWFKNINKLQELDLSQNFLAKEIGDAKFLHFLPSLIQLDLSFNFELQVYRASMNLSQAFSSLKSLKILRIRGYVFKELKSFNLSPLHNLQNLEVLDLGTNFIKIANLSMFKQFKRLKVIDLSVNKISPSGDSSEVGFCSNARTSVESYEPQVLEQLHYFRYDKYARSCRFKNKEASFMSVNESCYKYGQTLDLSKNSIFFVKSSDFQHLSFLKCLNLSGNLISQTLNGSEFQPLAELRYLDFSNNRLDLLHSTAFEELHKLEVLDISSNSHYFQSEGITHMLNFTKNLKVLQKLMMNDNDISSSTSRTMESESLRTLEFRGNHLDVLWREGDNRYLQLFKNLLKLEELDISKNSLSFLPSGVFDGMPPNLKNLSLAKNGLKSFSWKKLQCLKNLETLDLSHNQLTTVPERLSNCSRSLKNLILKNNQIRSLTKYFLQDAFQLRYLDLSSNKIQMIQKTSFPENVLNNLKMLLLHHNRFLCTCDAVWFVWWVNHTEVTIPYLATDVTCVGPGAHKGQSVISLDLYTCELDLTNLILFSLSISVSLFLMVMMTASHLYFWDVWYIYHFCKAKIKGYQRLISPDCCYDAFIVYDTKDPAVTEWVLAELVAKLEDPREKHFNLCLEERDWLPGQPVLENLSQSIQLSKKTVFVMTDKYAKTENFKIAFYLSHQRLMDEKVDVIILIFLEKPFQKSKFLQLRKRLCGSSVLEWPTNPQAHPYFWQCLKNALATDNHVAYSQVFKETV
The test is described as follows: Human TLR7 Reporter Assay. The note with it: HEK-Blue hTLR7 cells, 16 hours, normalized to CL097 (6 μM) and DMSO. In kind it is cell-based. Put shortly:
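HEK-Blue hTLR7 reporter cells (20,000/well) incubated 16 h at 37 °C with 10-point 3-fold compound dilutions; SEAP read by absorbance at 620 nm. Effects normalized between CL097 (6 μM) and DMSO controls; EC50 from 4-parameter fit.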

Turning to `CCCCNc1nc(N)nc2cn(Cc3sc(C)nc3C)nc12` [Compound 175], the pEC50 on hTLR8 was 5.95; at hTLR7, 6.95.

Take `C=CCN(C)Cc1ccc(Cn2cc3nc(N)nc(N[C@H](CO)CCC)c3n2)c(OC)c1` [Compound 156]: the pEC50 was 6.82 at hTLR8 and 7.11 at hTLR7.

Regarding `CCCCNc1nc(N)nc2cn(Cc3ccc(C(N)CCN)cc3OC)nc12` (stereo not drawn) [Compound 229], the figures for the pEC50 on hTLR8 and on hTLR7 were 4.94 and 5.64, respectively.

With `C=CCN(C)Cc1nc(Cn2cc3nc(N)nc(NCCCC)c3n2)c(C)o1` [Compound 169], the pEC50 was 5.39 on hTLR8 and 5.73 at hTLR7.

For `CCCCNc1nc(N)nc2cn(CCCCCCCCN)nc12` [Compound 13], the pEC50 is 4.58 on hTLR8 and 5.52 on hTLR7.

`CCCCNc1nc(N)nc2cn(Cc3ccc(CN4CCNCC4)cc3OC)nc12` [Compound 131]: the figures for the negative logarithm of the EC50 (pEC50) at hTLR8 and at hTLR7 were 5.90 and 6.17, respectively.

Take `CCC[C@H](C)Nc1nc(N)nc2cn(Cc3c(OC)cc(CNC)cc3OC)nc12` [Compound 190]: the pEC50 is 5.66 on hTLR8 and 6.73 on hTLR7.

As for `CCC[C@@H](CO)Nc1nc(N)nc2cn(Cc3c(OC)cc(C(CN)N(C)CCC)cc3OC)nc12` (stereo partly drawn) [Compound 221], the pEC50 on hTLR8 is 5.46; on hTLR7, 5.29.

For the molecule `COc1cccc(OC)c1Cn1cc2nc(N)nc(NCC(C)O)c2n1` (stereo not drawn) [Compound 49], the pEC50 at hTLR8 was less than 4.52; on hTLR7, 5.14.

As for `CCCCNc1nc(N)nc2cn(Cc3c(OC)cccc3OCCCCO)nc12` [Compound 208], the pEC50 on hTLR8 was 6.04; on hTLR7, 6.52.

As to `CCCCNc1nc(N)nc2cn(CC3CCCCC3)nc12` [Compound 7], the pEC50 is less than 4.52 at hTLR8 and 5.60 at hTLR7.

Take `CCCC(Nc1nc(N)nc2cn(Cc3c(OC)cccc3OC)nc12)C(F)(F)F` (stereo not drawn) [Compound 124]: the figures for the pEC50 at hTLR8 and on hTLR7 were less than 5.00 and 6.58, respectively.

For the molecule `COc1cccc(OC)c1Cn1cc2nc(N)nc(NCCC(C)O)c2n1` (stereo not drawn) [Compound 52], the pEC50 on hTLR8 was less than 4.52; at hTLR7, 5.55.

Take `CCCCNc1nc(N)nc2cn(Cc3nc(C)no3)nc12` [Compound 170]: the pEC50 at hTLR8 was 5.35; at hTLR7 it was 5.81.

As for `CCCCNc1nc(N)nc2cn(Cc3c(OC)cc(C(C)NC)cc3OC)nc12` (stereo not drawn) [Compound 211], the pEC50 at hTLR8 is 6.70; on hTLR7 it was 6.44.

With `CCCCNc1nc(N)nc2cn(Cc3nc(Br)oc3C)nc12` [Compound 160], the pEC50 at hTLR8 was 5.08; on hTLR7, 6.43.

For the molecule `CCCCC(CCO)Nc1nc(N)nc2cn(Cc3ccccc3OC)nc12` (stereo not drawn) [Compound 17], the pEC50 on hTLR8 was less than 4.52; on hTLR7 it was 6.40.

For `CCCCNc1nc(N)nc2cn(Cc3ccc(N4CCNCC4)cn3)nc12` [Compound 123], the pEC50 at hTLR8 was 6.06; on hTLR7, 6.13.

Turning to `CCCCNc1nc(N)nc2cn(Cc3c(OC)ccc(CN)c3OC)nc12` [Compound 76], the pEC50 on hTLR8 was 6.14; on hTLR7, 5.52.

As for `CCCC(C)Nc1nc(N)nc2cn(Cc3c(OC)cccc3OC)nc12` (stereo not drawn) [Compound 91], the pEC50 on hTLR8 is 6.54; on hTLR7, 7.45.

As to `CCCCC(CCC)Nc1nc(N)nc2cn(Cc3ccccc3OC)nc12` (stereo not drawn) [Compound 19], the pEC50 was less than 4.52 at hTLR8 and 6.36 at hTLR7.

Take `CCCCNc1nc(N)nc2cn(Cc3ccc(CN4CC(N)C4)cc3OC)nc12` [Compound 191]: the results for the pEC50 at hTLR8 and at hTLR7 were 6.07 and 6.27, respectively.

`CCC[C@@H](CO)Nc1nc(N)nc2cn(Cc3c(OC)cc(CNC)cc3OC)nc12` [Compound 154]: the pEC50 on hTLR8 was 5.38; on hTLR7 it was 5.97.

With `CCCCNc1nc(N)nc2cn(Cc3cncn3C)nc12` [Compound 180], the pEC50 was 5.20 on hTLR8 and 5.94 at hTLR7.

Take `CCCCNc1nc(N)nc2cn(Cc3ccc(C(C)NCCC)cc3OC)nc12` (stereo not drawn) [Compound 216]: the negative-log EC50 (pEC50) at hTLR8 was 6.92; on hTLR7, 6.97.

In the case of `CCCCNc1nc(N)nc2cn(Cc3ccc(C(C)N)cc3OC)nc12` (stereo not drawn) [Compound 167], the pEC50 is 6.75 at hTLR8 and 6.45 at hTLR7.

As to `CCCCNc1nc(N)nc2cn(Cc3c(F)cccc3F)nc12` [Compound 41], the pEC50 at hTLR8 is 6.15; on hTLR7 it was 7.16.

Turning to `CCCCNc1nc(N)nc2cn(Cc3c(OC)ccc(N)c3OC)nc12` [Compound 77], the pEC50 is 5.82 at hTLR8 and 6.31 at hTLR7.

`CCCCNc1nc(N)nc2cn(Cc3nocc3C)nc12` [Compound 140]: the pEC50 is 5.76 at hTLR8 and 6.60 on hTLR7.

Turning to `CCCCNc1nc(N)nc2cn(Cc3ccc(CC(C)N)cc3OC)nc12` (stereo not drawn) [Compound 176], the pEC50 was 6.33 on hTLR8 and 6.48 on hTLR7.

For `CCCCNc1nc(N)nc2cn(Cc3ccccc3OC(C)C)nc12` [Compound 37], the pEC50 is less than 5.00 at hTLR8 and 5.99 at hTLR7.

As to `CCCCNc1nc(N)nc2cn(Cc3ncc(NCCCN)cc3OC)nc12` [Compound 129], the pEC50 on hTLR8 is 5.87; at hTLR7, 6.53.

In the case of `C=CCN(C)Cc1cc(OC)c(Cn2cc3nc(N)nc(NC(C)CCC)c3n2)c(OC)c1` (stereo not drawn) [Compound 158], the pEC50 at hTLR8 is 6.75; at hTLR7, 7.66.

Regarding `CCC[C@@H](CO)Nc1nc(N)nc2cn(Cc3c(OC)cc(C(C)N)cc3OC)nc12` (stereo partly drawn) [Compound 222], the results for the pEC50 at hTLR8 and at hTLR7 were 5.97 and 5.20, respectively.

For `CCCCNc1nc(N)nc2cn(Cc3ccc(N4CCN(C(=O)C5CCC(CN6C(=O)C=CC6=O)CC5)CC4)cc3OC)nc12` (stereo not drawn) [Compound 68], the pEC50 on hTLR8 was 5.44; on hTLR7 it was 6.72.

As to `CCCCNc1nc(N)nc2cn(Cc3c(OC)ccc(CN4CCN(C(=O)C5CCC(CN6C(=O)CC(SC[C@H](N)C(=O)O)C6=O)CC5)CC4)c3OC)nc12` (stereo partly drawn) [Compound 90], the values for the pEC50 at hTLR8 and on hTLR7 were 4.82 and 5.66, respectively.

With `CCCCNc1nc(N)nc2cn(Cc3ccc(CN4CC(CN5C(=O)C=CC5=O)C4)cc3OC)nc12` [Compound 127], the values for the pEC50 on hTLR8 and at hTLR7 were 5.48 and 5.91, respectively.

`CCCCNc1nc(N)nc2cn(Cc3ccc(CC(C)N)cc3OC)nc12` (stereo not drawn) [Compound 178]: the pEC50 at hTLR8 is 6.34; on hTLR7 it was 6.53.

Regarding `CCCCNc1nc(N)nc2cn(Cc3c(OC)cc(NCCN4C(=O)C=CC4=O)cc3OC)nc12` [Compound 134], the values for the pEC50 at hTLR8 and at hTLR7 were 4.84 and 5.82, respectively.
